Measurements published in patent US20240150711A1, “PERSONALIZED REDIRECTION AND REPROGRAMMING OF T CELLS FOR PRECISE TARGETING OF TUMORS” (Dana-Farber Cancer Institute, Inc., priority 2021, published 2024).

System: Tcf7
Test: Tcf7 protein levels by intracellular flow cytometry in CD8 T cells cultured with neutralizing antibodies or added cytokines
Format: cell-based
Settings: naïve CD8 T cells from wild-type mice, anti-CD3/anti-CD28 stimulation, cultured 1 week in IL2, IL7, IL15, IL21; versus isotype antibodies
Text: Next, it was sought to determine whether the effects of blocking IFN-γ signaling on the Tcf7+ phenotype could be recapitulated using a method separate from CRISPR-deletion, such as with neutralizing antibodies. As such, antibodies to both the Ifn-gamma and Ifn-gamma receptor genes were used. Naïve CD8 T cells were isolated from wild-type mice and cultured in the presence of either isotype-control or a combination of Ifn-gamma and IfngR neutralizing antibodies at various dosing levels or in the presence of added cytokines (either IFN-gamma, IFN-alpha, or IL12), then stimulated with anti-CD3/anti-CD28 antibodies and cultured for 1 week in IL2, IL7, IL15, and IL21, and Tcf7 protein levels were quantified by intracellular flow cytometry, as shown in FIG. 11.

Substance: interferon-γ: added cytokine
- Tcf7 expression (Tcf7 protein levels): no effect on Tcf7 expression
